Experimental data from US5135943A, “1H-imidazole derivative compounds and pharmaceutical compositions containing the same” (priority 1984, dated 1992).
In brackets after ≈: the same amount, converted by molar mass. Where two headings read alike, the source gives them in different places.

How the values were obtained:
Swiss mice = settings: mouse, in vivo
From the text: Such signs included convulsions and Straub tail(vertical righting of the tail).

Trichophyton rubrum = experiment: Randomized double blind clinical trials, Trichophyton rubrum infection; assay type: in vivo, human; settings: 2 % cream (nitrate salts), 28 days treatment
Procedure: Human clinical trials were performed with Sertaconazole nitrate and Miconazole nitrate acid addition salts. Randomized double blind trials were carried out with 502 patients suffering from cutaneous mycosis as confirmed by microscopic examination and microbiological culture. 247 patients were treated with 2 % Sertaconazole cream and the remaining 255 patients were treated with 2 % Miconazole cream. All patients received scheduled treatment for 28 days and were followed up for an additional 28 days for possible relapses.

[1] = Acute toxicity (LD50) in mouse, three administration routes; settings: in vivo, males
From the text: A number of compounds with antimycotic and/or fungicidal properties, which are useful in pharmaceutical compositions, are currently known. These include the commercially successful Miconazole having the formula II [drawing 2] Miconazole has a structure chemically similar to the 1H-imidazole derivative compounds of the invention. Miconazole is effective against a number of yeasts, dermatophytes and fungi. This effectiveness can be measured by culturing these microorganisms in vitro and applying a preparation containing the antimycotic compound, Miconazole. The results of this type of in vitro experiment is expressed in terms of the Minimum Inhibitory Concentration (MIC), i.e. the minimum concentration which inhibits the growth of the microorganism. For example, the MIC for Miconazole against a particular Candida albicans strain is found to be 10.7 micrograms/milliliter. The effectiveness of Miconazole as an antimycotic compound is measured in vivo by applying a suspension containing the drug to the skin of a number of animals and measuring the proportion of animals on which growth of the microorganism is inhibited as a function of time. Typically, after 25 days, about 1/4 of the animals were cured, when treated with a cream containing 2 % by weight Miconazole. Of course, any pharmaceutical preparation for treating a disease in a human must satisfy certain toxicity requirements. […] Toxicity tests have been performed on the IH-imidazole derivative compounds of the invention and on Miconazole and other known compounds having antimycotic properties. In toxicity tests the LD50 (the dose at which 50 % mortality occurs) is measured.
Toxicity of Sertaconazole, Microazole and Martin's compounds 1, 2 and 3, as shown below, has been tested by standard methods. Both acute toxicity, subacute toxicity and chronic toxicity were studied
Oral, intraperitoneal and subcutaneous acute toxicity of sertaconazole and miconazole have been investigated. LD50 in mouse and rat, male and female, were measured.

Candida s.p. = experiment: MIC by two-fold dilution, Candida s.p.; assay type: cell-based
Procedure: (§1) Minimum Inhibitory Concentrations (MICS) of Sertaconazole and Miconazole against 107 yeasts, 47 dermatophytes and 4 fungi were determined by a two-fold dilution method.

C. albicans 14 = experiment: MIC, comparative in vitro testing against Martin compounds; assay type: cell-based; settings: Casitone medium
Procedure: (§2) Minimum Inhibitory Concentrations (MICS) of Sertaconazole were also measured in comparison to four of the compounds described in the Martin Patent, including a compound, referred to herein as Martin Compound 1, which has the same structure as Sertaconazole, expect that the sulfur in the benzothiophene ring is replaced by an oxygen.
(§3) The results of comparative in vitro testing of Sertaconazole and these four Martin compounds are shown in the following Table II against 16 microorganisms. The reading time is the time interval from the time of inoculation to the time of measurement.

C. krusei 24 = experiment: as above; assay type: cell-based
Procedure: as §2, §3

C. pseudotropicalis 21 = experiment: as above; assay type: cell-based; settings: Sabouraud medium
Procedure: as §2, §3

C. albicans 31 = experiment: as above; assay type: cell-based; settings: YNB medium
Procedure: as §2, §3

C. tropicalis 25 = experiment: as above; assay type: cell-based; settings: YNB medium
Procedure: as §2, §3

Microsporum canis = experiment: MIC by two-fold dilution, Microsporum canis; assay type: cell-based; settings: 4 strains, read-out: Minimum Inhibitory Concentration
Procedure: as §1

Trichophyton rubrus = experiment: MIC by two-fold dilution, Trichophyton rubrus; assay type: cell-based; settings: 10 strains, read-out: Minimum Inhibitory Concentration
Procedure: as §1

[2] = tested on: Scopulariopsis brevi-caulis; experiment: MIC by two-fold dilution, Scopulariopsis brevicaulis; assay type: cell-based
Procedure: as §1

Candida albicans = experiment: Vaginal infection by Candida albicans in female mice; assay type: in vivo; settings: seven days after infection
From the text: Besides the above in vivo experiments vaginal infection by Candida albicans was studied in female mice. Standard methods were used. […] Similar results were found in experiments where repeated dosages of active compound were used after infection. These in vivo results confirmed the surprising speed of action of Sertaconazole in comparison to the prior art compounds.

Candida tropicalis = experiment: MIC by two-fold dilution, Candida tropicalis; assay type: cell-based; settings: 10 strains, read-out: Minimum Inhibitory Concentration
Procedure: as §1

rats = experiment: Chronic toxicity in rats; assay type: in vivo, rat; settings: even at dosage levels of 300 mg/kg
Dermatophytes, Others = experiment: MIC by two-fold dilution, other dermatophytes; assay type: cell-based; settings: 3 strains; read-out: Minimum Inhibitory Concentration
Procedure: as §1

Torulopsis glabrata = experiment: MIC by two-fold dilution, Torulopsis glabrata; assay type: cell-based; settings: Nakaseomyces glabratus; 10 strains; read-out: Minimum Inhibitory Concentration
Procedure: as §1

Compound: Clc1ccc(C(Cn2ccnc2)OCc2csc3c(Cl)cccc23)c(Cl)c1 (stereo not shown) [Sertaconazole]
- less toxic than Martin Compound 1 (Swiss mice): 8-15 times
- signs of intoxication in the central nervous system (convulsions and Straub tail) (Swiss mice): not observed
- LD0 (Swiss mice; ip): 4000 mg/kg
- LD50 (Swiss mice; ip): 8000 mg/kg
- effectiveness against Trichophyton rubrum (Trichophyton rubrum): 100%
- LD50 ([1]; ip, intraperitoneal): > 8000 mg/kg
- LD50 ([1]; oral): > 8000 mg/kg
- LD50 ([1]; sc, subcutaneous): > 8000 mg/kg
- MIC (Candida s.p.; Candida, 15 strains, read-out: Minimum Inhibitory Concentration): 0.5 µg/mL (≈ 1.14 µM)
- increase of activity in comparison to Miconazole (Candida s.p.; in vitro): 47.4%
- MIC (C. albicans 14; Candida albicans, 14, 48 h, reading time 48 h, SZ vs M2): 0.25 µg/mL (≈ 0.571 µM)
- MIC (C. albicans 14; Candida albicans, 14, 48 h, reading time 48 h, SZ vs M3): 0.5 µg/mL (≈ 1.14 µM)
- MIC (C. albicans 14; Candida albicans, 14, 48 h, reading time 48 h, SZ vs M4): 0.5 µg/mL (≈ 1.14 µM)
- MIC (C. albicans 14; Candida albicans, 14, 60 h, reading time 60 h, SZ vs M1): 1 µg/mL (≈ 2.28 µM)
- MIC (C. krusei 24; Casitone medium, reading time 48 h, SZ vs M4): 0.125 µg/mL (≈ 0.286 µM)
- MIC (C. krusei 24; Pichia kudriavzevii, 24, 48 h): 0.125 µg/mL (≈ 0.286 µM)
- MIC (C. krusei 24; Pichia kudriavzevii, 24, 48 h, Casitone medium, reading time 48 h, SZ vs M2, read-out: MIC): 0.25 µg/mL (≈ 0.571 µM)
- MIC (C. krusei 24; Pichia kudriavzevii, 24, 48 h, YNB medium, reading time 48 h, SZ vs M2, read-out: MIC): 0.25 µg/mL (≈ 0.571 µM)
- MIC (C. krusei 24; Pichia kudriavzevii, 24, 48 h, YNB medium, reading time 48 h, SZ vs M3, read-out: MIC): 0.25 µg/mL (≈ 0.571 µM)
- MIC (C. krusei 24; Pichia kudriavzevii, 24, 48 h, YNB medium, reading time 48 h, SZ vs M4, read-out: MIC): 0.25 µg/mL (≈ 0.571 µM)
- MIC (C. krusei 24; Pichia kudriavzevii, 24, 60 h, Casitone medium, reading time 60 h, SZ vs M1, read-out: MIC): 1 µg/mL (≈ 2.28 µM)
- MIC (C. krusei 24; Pichia kudriavzevii, 24, 60 h, YNB medium, reading time 60 h, SZ vs M1, read-out: MIC): 0.25 µg/mL (≈ 0.571 µM)
- MIC (C. pseudotropicalis 21; Kluyveromyces marxianus, 21, reading time 48 h, SZ vs M2, read-out: MIC): 0.03 µg/mL (≈ 0.0685 µM)
- MIC (C. pseudotropicalis 21; Kluyveromyces marxianus, 21, reading time 60 h, SZ vs M1, read-out: MIC): 0.03 µg/mL (≈ 0.0685 µM)
- MIC (C. pseudotropicalis 21; reading time 48 h, SZ vs M3): 0.03 µg/mL (≈ 0.0685 µM)
- MIC (C. pseudotropicalis 21; reading time 48 h, SZ vs M4): 0.03 µg/mL (≈ 0.0685 µM)
- MIC (C. albicans 31; Candida albicans, 31, reading time 48 h, SZ vs M2, read-out: MIC): 4 µg/mL (≈ 9.14 µM)
- MIC (C. albicans 31; Candida albicans, 31, reading time 60 h, SZ vs M1, read-out: MIC): 8 µg/mL (≈ 18.3 µM)
- MIC (C. albicans 31; reading time 48 h, SZ vs M3): 4 µg/mL (≈ 9.14 µM)
- MIC (C. albicans 31; reading time 48 h, SZ vs M4): 4 µg/mL (≈ 9.14 µM)
- MIC (C. tropicalis 25; Candida tropicalis, 25, 48 h, reading time 48 h, SZ vs M2): 8 µg/mL (≈ 18.3 µM)
- MIC (C. tropicalis 25; Candida tropicalis, 25, 48 h, reading time 48 h, SZ vs M3): 4 µg/mL (≈ 9.14 µM)
- MIC (C. tropicalis 25; Candida tropicalis, 25, 48 h, reading time 48 h, SZ vs M4): 4 µg/mL (≈ 9.14 µM)
- MIC (C. tropicalis 25; Candida tropicalis, 25, 60 h, reading time 60 h, SZ vs M1): 8 µg/mL (≈ 18.3 µM)
- MIC (Microsporum canis): 2.8 µg/mL (≈ 6.4 µM)
- MIC (Trichophyton rubrus): 0.4 µg/mL (≈ 0.914 µM)
- MIC ([2]; Scopulariopsis, 4 strains, read-out: Minimum Inhibitory Concentration): 8 µg/mL (≈ 18.3 µM)
- increase of activity in comparison to Miconazole ([2]; in vitro): 75%
- animals healed (Candida albicans): 75%
- MIC (Candida tropicalis): 5.6 µg/mL (≈ 12.8 µM)
- mortality (rats): no mortality was observed
- MIC (Dermatophytes, Others): 2.5 µg/mL (≈ 5.71 µM)
- MIC (Torulopsis glabrata): 1.5 µg/mL (≈ 3.43 µM)
